Source: patent US9605027B2, “Polypeptides that bound to IL-23 receptor and inhibit binding of IL-23 and cell signaling thereof” (Medical Diagnostic Laboratories, LLC, priority 2011, dated 2017)
Entries after “also recorded” stand apart in the source; their conditions may differ. Peptide text beside a SMILES is read from it.

Target: T1, Recombinant human IL-23R-Fc (Homo sapiens, UniProt Q5VWK5)
T1 construct: has the protein portion between the 24 amino acid residue to 353 amino acid residue; purchased R&D Systems 1400-IR-050
T1 sequence (Q5VWK5 24-353): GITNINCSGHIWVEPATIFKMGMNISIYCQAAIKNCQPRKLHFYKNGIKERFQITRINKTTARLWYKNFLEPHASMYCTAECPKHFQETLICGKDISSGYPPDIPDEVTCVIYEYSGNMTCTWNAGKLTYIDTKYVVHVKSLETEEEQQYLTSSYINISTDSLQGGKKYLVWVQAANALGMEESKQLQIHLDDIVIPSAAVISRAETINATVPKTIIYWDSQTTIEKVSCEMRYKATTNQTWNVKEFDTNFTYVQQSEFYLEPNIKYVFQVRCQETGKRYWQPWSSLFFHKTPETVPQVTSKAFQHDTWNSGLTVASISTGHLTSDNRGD
Experiment: Competitive ELISA, IL-23 binding to IL-23R
Conditions: for inhibition of IL-23 binding to its receptor by modified polypeptides, Competitive ELISA: procedure of Example 6, compared with parent polypeptide
Protocol: The novel polypeptides were tested for their ability to inhibit IL-23 using a Competitive ELISA. In such an assay, IL-23R/Fc fusion protein was immobilized on a solid support. In this instance, the solid support was a 96-well plate, but the support may be any support that is typically used for an ELISA. The novel polypeptide and IL-23 were allowed to compete for binding to the immobilized IL-23R/Fc fusion protein. IL-23 that bound to IL-23R-Fc was detected using biotinylated anti-p40 antibody. The bound anti-p40 antibody was detected using streptavidin-horseradish peroxidase (HRP) and a tetramethylbenzidine (TMB) substrate was added to measure peroxidase activity. The color was measured at optical density (OD) 450nm. The color intensity was directly proportional to the amount of the bound IL-23 protein. […] (See, FIG. 16.)
(§1) FIG. 12 is a schematic depiction of the Competitive ELISA. Recombinant human IL-23R-Fc (2 μg/ml) was coated onto microtiter plates as a capture reagent. IL-23 and polypeptides were added to compete for binding to the immobilized IL-23R-Fc. IL-23 that bound to IL-23R-Fc was detected using biotinylated anti-p40 antibody (1:250). The bound anti-p40 antibody was detected using streptavidin-horseradish peroxidase (HRP) (1:500) and 100 μl/well of a tetramethylbenzidine (TMB) substrate was added to measure peroxidase activity. The color was measured at optical density (OD) 450nm. (See, FIG. 12). The color intensity was directly proportional to the amount of the bound IL-23 protein.
as §1, with “Recombinant” for “FIG. 12 is a schematic depiction of the Competitive ELISA. Recombinant”, “IL-23R-Fc. 50 μg human IL-23 (Cat. No. HZ-1048) (Humanzyme, Chicago, Ill.) in the presence or absence of 100 μM peptides was added to the well and incubated at 4° C. overnight.” for “IL-23R-Fc.”, “450nm.” for “450nm. (See, FIG. 12).”

| SMILES | IC50 (human IL-23 / IL-23R-Fc, read-out: IC50, cell-free competitive ELISA) [nM] | inhibition of IL-23 binding to its receptor by modified polypeptides, Competitive ELISA |
| --- | --- | --- |
| CSCC[C@@H]1NC(=O)[C@H](CCCCN)NC(=O)[C@H](C)NC(=O)[C@H](C)NC(=O)[C@H](CS)NC(=O)[C@H](CC(N)=O)NC(=O)[C@H](CCCCN)NC(=O)[C@H](CC(C)C)NC(=O)[C@H](Cc2c[nH]c3ccccc23)NC(=O)[C@H](Cc2ccc(O)cc2)NC(=O)[C@H](CC(=O)O)NC(=O)[C@H](C(C)C)NC(=O)[C@H](Cc2c[nH]c3ccccc23)NC(=O)[C@H]([C@@H](C)O)NC1=O [2HT AA] (cyclo(AAKMTWVDYWLKNC)) | 8.1 | did not abrogate the polypeptides' ability; also recorded: best inhibitory activity |
| CSCC[C@@H]1NC(=O)[C@H](C)NC(=O)[C@@H](N)CSSC[C@@H](C(=O)O)NC(=O)[C@H](CCCNC(=N)N)NC(=O)CNC(=O)[C@H](Cc2ccc(O)cc2)NC(=O)[C@H](CC(C)C)NC(=O)[C@H](Cc2c[nH]c3ccccc23)NC(=O)[C@H](Cc2ccc(O)cc2)NC(=O)[C@H](CC(=O)O)NC(=O)[C@H](CCC(N)=O)NC(=O)[C@H](Cc2c[nH]c3ccccc23)NC(=O)[C@H]([C@@H](C)O)NC1=O [23.19] | – | equally effective |
